# According to patent publication US5905089A, “Use of sesquiterpene lactones for treatment of severe inflammatory disorders” (Board of Supervisors of Louisiana State University and …, priority 1998, dated 1999):
# How the values were obtained:
# [1] = tested on: MAPKs; assay: Tyrosine phosphorylation / activation of MAPKs in RAW 264.7 cells; assay type: cell-based, murine; conditions: for effect on parthenolide inhibition of LPS-induced activation of MAPKs: parthenolide 1 μg/ml with DTT 100 μM, 2-ME 50 μM or Cys 150 μM, LPS 1 μg/ml, 30 min, FIG. 6A
# Procedure: (§1) Rat (Sprague-Dawley) alveolar macrophages were collected by broncho-alveolar lavage as described by Lee et al., J. Biol. Chem., vol. 267, pp. 25934-25938 (1992). The murine macrophage cell line RAW 264.7 (ATCC no. TIB-71) was cultured in Dubecco's modified Eagle's medium (DMEM) containing 10% heat-inactivated fetal bovine serum (FBS, Intergen). For the cyclooxygenase activity assay, cells were seeded in 24 well plates, and after near-confluency, cells were treated with aspirin (250 μM) for 2.5h to inactivate endogenous cyclooxygenase. […] COX activity was determined by measuring prostaglandin E2 concentrations in cells incubated with arachidonic acid (30 μM) for 10 minutes as described in Lee et al. (1992).
# (§2) This detection technique was carried out essentially as described in Chanmugan et al. (1995) using 4G10 monoclonal antiphosphotyrosine antibody (UBI) and the ECL detection system (Amersham).
# (§3) Parthenolide suppressed LPS-stimulated tyrosine phosphorylation of various proteins in RAW 264.7 cells as assessed by antiphosphotyrosine immunoblot, depicted in FIG. 5A. This inhibition was correlated with the suppressed expression of COX-2 and IL-1α. RAW 264.7 cells were pretreated with parthenolide in various concentrations or with herbimycin A (0.5 μg/ml) for 3h, and then stimulated with LPS (1 μg/ml) in the presence of the inhibitors for 30 min. […] Therefore, the extent of tyrosine phosphorylation of JNK-1 was assessed by the electrophoretic mobility shift of phosphorylated JNK-1 as shown in FIG. 5B. Parthenolide inhibited tyrosine phosphorylation of JNK-1. Another protein tyrosine kinase inhibitor, herbimycin A ([…]), inhibited tyrosine phosphorylation of the MAPK subfamily.
# The mechanism by which parthenolide inhibits protein tyrosine phosphorylation is not currently known. It has been speculated that the tyrosine kinase inhibitor herbimycin A inactivates p60^v-src kinase by irreversibly binding to the sulphydryl (SH) groups of p60^v-src kinase. Y. Uehara et al., Biochem. Biophys. Res. Commun., vol. 163, pp. 803-809 (1989). The inactivation by herbimycin may occur through conjugation between highly polarized double bonds in the benzoquinone moiety of herbimycin A and the SH group of sulphydryl compounds. Without wishing to be bound by this theory, the α-methylenebutyrolactone in parthenolide may interact with biological nucleophiles such as sulphydryl groups. Indeed, pretreating cells with sulphydryl compounds abrogated the inhibitory effect of parthenolide on LPS-induced activation of MAPKs as shown in FIG. 6A. In FIG. 6, RAW 264.7 cells were pretreated with parthenolide (1 μg/ml) in the presence of DTT (dithiothreitol, 100 μM), 2-ME (2-mercaptoethanol, 50 μM), or Cys (L-cysteine, 150 μM), and were then stimulated with LPS (1 μg/ml). Cells were incubated for 30 min for antiphosphotyrosine immunoblot analysis (FIG. 6A) and 8h for COX-2 and IL-1α Western blot analyses (FIG. 6B). […] Whether parthenolide inhibits protein tyrosine phosphorylation by directly inhibiting PTKs or by inhibiting other target protein(s) that affect the activity of PTKs is not currently known.
# [2] = tested on: COX-2; assay: COX-2 expression in LPS-stimulated RAW 264.7 cells (Western blot); assay type: cell-based, murine; conditions: parthenolide 1 μg/ml with DTT 100 μM, 2-ME 50 μM or Cys 150 μM; LPS 1 μg/ml, 8h; FIG. 6B
# Procedure: as §1
# (§4) The protein levels of COX-2 and GAPDH were assessed by Western blot analysis using polyclonal antibodies as described in Lee et al. (1992). Polyclonal antibodies for IL-1α and JNK-1 were purchased from Genzyme and Santa Cruz Biotech, respectively.
# as §3
# (§5) The mechanism by which parthenolide inhibits protein tyrosine phosphorylation is not currently known. It has been speculated that the tyrosine kinase inhibitor herbimycin A inactivates p60^v-src kinase by irreversibly binding to the sulphydryl (SH) groups of p60^v-src kinase. Y. Uehara et al., Biochem. Biophys. Res. Commun., vol. 163, pp. 803-809 (1989). The inactivation by herbimycin may occur through conjugation between highly polarized double bonds in the benzoquinone moiety of herbimycin A and the SH group of sulphydryl compounds. Without wishing to be bound by this theory, the α-methylenebutyrolactone in parthenolide may interact with biological nucleophiles such as sulphydryl groups. Indeed, pretreating cells with sulphydryl compounds abrogated the inhibitory effect of parthenolide on LPS-induced activation of MAPKs as shown in FIG. 6A. […]
# [3] = tested on: IL-1α; assay: IL-1α expression in LPS-stimulated RAW 264.7 cells (Western blot); assay type: cell-based, murine; conditions: parthenolide 1 μg/ml with DTT 100 μM, 2-ME 50 μM or Cys 150 μM; LPS 1 μg/ml, 8h; FIG. 6B
# Procedure: as §1, §4, §3, §5
# [4] = tested on: COX-2; assay: Inhibition of the expression of COX-2 in LPS-stimulated macrophages (Table 1); assay type: cell-based; conditions: for IC50, inhibiting the expression of COX-2: IC50 determined at multiple dose levels; for inhibitory activity (COX-2 expression), in words: comparison among tested compounds
# Procedure: Rat (Sprague-Dawley) alveolar macrophages were collected by broncho-alveolar lavage as described by Lee et al., J. Biol. Chem., vol.
# Alveolar macrophages pretreated with aspirin were incubated with LPS (10 μg/ml) and various concentrations of parthenolide for 16h. The activity of de novo synthesized COX-2 was determined by measuring the levels of PGE2 produced from exogenous arachidonic acid. Activity of TNFα was determined by bioassay using L929 cells as described by Aggarwal et al., J. Biol. Chem., vol. […] Values in FIG. 2 are the means of triplicate samples for TNFα and duplicate samples for PGE2.
# [5] = tested on: tumor; conditions: cited from earlier work
# [6] = tested on: epidermal growth factor receptor; conditions: in vitro; cited from earlier work
# [7] = tested on: ERK-1; assay: Tyrosine phosphorylation of ERK-1 in RAW 264.7 cells (antiphosphotyrosine immunoblot); assay type: cell-based, murine; conditions: 3h pretreatment, LPS 1 μg/ml 30 min; FIG. 5A
# Procedure: as §1, §2
# (§6) Parthenolide suppressed LPS-stimulated tyrosine phosphorylation of various proteins in RAW 264.7 cells as assessed by antiphosphotyrosine immunoblot, depicted in FIG. 5A. This inhibition was correlated with the suppressed expression of COX-2 and IL-1α. […] Therefore, the extent of tyrosine phosphorylation of JNK-1 was assessed by the electrophoretic mobility shift of phosphorylated JNK-1 as shown in FIG. 5B. […]
# [8] = tested on: ERK-2; assay: Tyrosine phosphorylation of ERK-2 in RAW 264.7 cells (antiphosphotyrosine immunoblot); assay type: cell-based, murine; conditions: 3h pretreatment, LPS 1 μg/ml 30 min; FIG. 5A
# Procedure: as §1, §2, §6
# [9] = tested on: ERK-1; assay: Kinase activity of ERK-1 in RAW 264.7 cells (in-gel kinase assay, MBP substrate); assay type: cell-based, murine; conditions: 3h pretreatment, LPS 1 μg/ml 30 min; FIG. 5
# Procedure: as §1
# (§7) This assay was performed according to the method described by Kameshita et al., Anal. Biochem., vol. 183, pp. 139-143 (1989) using myelin basic protein (MBP) as a substrate.
# as §6
# [10] = tested on: ERK-2; assay: Kinase activity of ERK-2 in RAW 264.7 cells (in-gel kinase assay, MBP substrate); assay type: cell-based, murine; conditions: 3h pretreatment, LPS 1 μg/ml 30 min; FIG. 5
# Procedure: as §1, §7, §6
compound,measurement,setting,value
"O[C@H](CS)[C@H](O)CS (racemic) [DTT, dithiothreitol]",effect on parthenolide inhibition of LPS-induced activation of MAPKs,[1],abrogated
same,effect on parthenolide-inhibited expression of COX-2,[2],recovered expression
same,effect on parthenolide-inhibited expression of IL-1α,[3],recovered expression
"OCCS [Compound 2-ME, 2-mercaptoethanol]",effect on parthenolide inhibition of LPS-induced activation of MAPKs,[1],abrogated
same,effect on parthenolide-inhibited expression of COX-2,[2],recovered expression
same,effect on parthenolide-inhibited expression of IL-1α,[3],recovered expression
"C=C1C(=O)O[C@@H]2/C=C(\C)[C@@H]3O[C@@H]3/C=C(/C(=O)OC)[C@H](O)[C@@H](OC(=O)[C@]3(C)O[C@@H]3C)[C@@H]12 [Compound 5, Melampodin A]","IC50, inhibiting the expression of COX-2",[4],0.5 µg/mL
same,"inhibitory activity (COX-2 expression), in words",[4],activities similar to that of parthenolide
"C=C1C(=O)O[C@@H]2[C@H]1CC[C@H](C)[C@]1(CCC(=O)O1)[C@@]2(C)O [Compound 8, Psilostachyin A]","IC50, inhibiting the expression of COX-2",[4],1.3 µg/mL
"C=C1C(=O)O[C@@H]2/C=C(\C)CC/C=C(\C)CC[C@@H]12 [Compound 9, Costunolide]","IC50, inhibiting the expression of COX-2",[4],1.6 µg/mL
"C[C@@H]1C[C@@H]2OC(=O)[C@]3(C)[C@H]2[C@@H](OC3(C)O)[C@]2(C)C(=O)C=C[C@@H]12 (stereo partly shown) [Compound 10, Tenulin]","IC50, inhibiting the expression of COX-2",[4],5.5 µg/mL
same,"inhibitory activity (COX-2 expression), in words",[4],significantly less than that of compounds 1-9
same,antitumor activity,[5],antitumor activity
"CC1=CCCC2(C)OC2C2OC(=O)C(C)C2CC1 (stereo not shown) [Compound 11, 11,13-dihydroparthenolide]","IC50, inhibiting the expression of COX-2",[4],> 100 µg/mL
same,"inhibitory activity (COX-2 expression), in words",[4],loss of inhibitory activity
"CC1C(=O)OC2C1CCC1(C)OC1CCC1(C)OC21 (stereo not shown) [Compound 12, 1(10)epoxy-11,13-dihydroparthenolide]","IC50, inhibiting the expression of COX-2",[4],> 100 µg/mL
same,"inhibitory activity (COX-2 expression), in words",[4],loss of inhibitory activity
"CC1=C2[C@H]3OC(=O)[C@@H](C)[C@@H]3CC[C@@]2(C)C=CC1=O [Compound 13, Santonin, reference compound]","IC50, inhibiting the expression of COX-2",[4],> 100 µg/mL
"N[C@@H](CS)C(=O)O [Cys, L-cysteine]",effect on parthenolide inhibition of LPS-induced activation of MAPKs,[1],abrogated
same,effect on parthenolide-inhibited expression of COX-2,[2],recovered expression
same,effect on parthenolide-inhibited expression of IL-1α,[3],recovered expression
O=c1c(-c2ccc(O)cc2)coc2cc(O)cc(O)c12 [genistein],tyrosine-specific protein kinase activity of the EGF receptor,[6],inhibited
"C=C1C(=O)O[C@@H]2C[C@@H](C)[C@@H]3C=CC(=O)[C@@]3(C)[C@@H](O)[C@H]12 [helenalin, reference compound]",antitumor activity,[5],some antitumor activity
"COC1C=CC=C(C)C(=O)NC2=CC(=O)C=C(C2=O)C(OC)C(C)CC(OC)C(OC)C(C)C=C(C)C1OC(N)=O (stereo not shown) [herbimycin A, reference compound]",tyrosine phosphorylation of ERK-1,[7],dose-dependent inhibition
same,tyrosine phosphorylation of ERK-2,[8],dose-dependent inhibition
same,tyrosine phosphorylation of the MAPK subfamily,"[1]; 3h pretreatment (herbimycin A 0.5 μg/ml), LPS 1 μg/ml 30 min",inhibited
same,kinase activity of ERK-1,[9],dose-dependent inhibition
same,kinase activity of ERK-2,[10],dose-dependent inhibition
Encelin [Compound 2],"IC50, inhibiting the expression of COX-2",[4],0.1 µg/mL
same,"inhibitory activity (COX-2 expression), in words",[4]; listed as Encelin,most active compound tested
same,"inhibitory activity (COX-2 expression), in words",[4]; listed as encelin,highest inhibitory activity
